# In patent publication US20140256771A1, “COMPOUNDS THAT MODULATE INTRACELLULAR CALCIUM” (CalciMedica, Inc., priority 2011, published 2014):
# Where two headings read alike, the source gives them in different places.
# Tests used:
# Orai1/STIM1 = target: T1, Orai1/STIM1 (Homo sapiens, UniProt Q96D31); assay: Fluorescence-based assay of store-operated calcium entry in Orai1/STIM1 stable cells; type: cell-based; design: key to Orai1/STIM1 (IC50, μmol): A < 0.6 μmol; 0.6 μmol ≦ B ≦ 1.2 μmol; C > 1.2 μmol; — = no fit; conditions: HEK-293 cells stably expressing human STIM1 and Orai1, 50% inhibition of Peak-Basal fluo-4 signal; for IC50: read-out: Orai1/STIM1 (IC50, μmol)
# T1 construct: expressed in transfected cells; host or cells: HEK-293
# Experimental: A. Fluorescence-based Assay of Store-Operated Calcium Entry in Orai1/STIM1 Stable Cells.
# Cells stably expressing recombinant human STIM1 and Orai1 are generated by transfecting a human Orai1 expression plasmid (pcDNA3.1-Orai1-cmyc) into HEK-293 cells stably overexpressing human STIM1 (Roos et al. 2005 JCB 169(3): 435-445). Colonies of cells stably expressing both STIM1 and Orai1 proteins are selected and then subcloned by limiting dilution. Cells were cultured at 37° C./6% CO2 in complete medium with 10% FBS and appropriate selection markers.
# The day prior to performing the assay Orai1/STIM1 stable cells are plated in 50 μL of complete medium at 90-95% confluence in a 384 well plate. Cells are grown at 37° C./6% CO2 overnight. On the day of the assay, 1.5 μM fluo-4-AM (Invitrogen) in complete medium is added to the cells, which are then incubated for 1 hour at RT. Cells are washed once in Ca^2+-free HBSS (Hank's buffered saline solution) and 35 μl of Ca^2+-free HBSS is added to each well. Test compounds are added to wells in a 10 μL Ca^2+-free HBSS solution, prepared at 4.5× the desired final concentration, and incubated for 30 minutes at RT. The initial baseline fluorescence signal is then measured with a FLIPR^384 (Molecular Devices) plate reader. Calcium entry is initiated by adding 5 μl of 10× CaCl2 (10 mM) in HBSS, and changes in cellular fluorescence are measured with the FLIPR^384 plate reader. In each well, the magnitude of the fluorescence signal as a result of calcium entry into the cell is determined by calculating the difference between the peak fluorescence signal measured after calcium addition and the initial baseline fluorescence signal (designated Peak-Basal). IC50 values are typically calculated as the concentration that inhibited 50% of the Peak-Basal signal (Table A).
# RBL-2H3 cells = assay: Fluorescence-based assay of store-operated calcium entry in RBL-2H3 cells; type: cell-based, rat; design: key to RBL-2H3 (IC50, μmol): A < 0.6 μmol; 0.6 μmol ≦ B ≦ 1.2 μmol; C > 1.2 μmol; — = no fit; conditions: thapsigargin store depletion, 50% inhibition of Upslope; for IC50: Rattus norvegicus, RBL-2H3, read-out: RBL-2H3 (IC50, μmol)
# Experimental: B. Fluorescence-based Assay of Store-Operated Calcium Entry in RBL-2H3Cells.
# RBL-2H3 cells are obtained from ATCC and maintained in complete medium with 10% FBS at 37° C./6% CO2.
# The day prior to performing the assay, RBL-2H3 cells are plated in 50 μL of complete medium in a 384 well plate. Cells are grown at 37° C./6% CO2 overnight and grow to 50-60% confluence by the next day. On the assay day, 1.5 μM Fluo-4-AM dye (Invitrogen) in complete medium is added and incubated for 1 hour at RT. Cells are washed twice in Ca^2+-free HBSS buffer and 35 μL Ca^2+-free HBSS buffer is added to each well. 10 μL of a test compound prepared in a Ca^2+-free HBSS solution at 4.5× of the desired concentration is added to a well and incubated for 5 minutes at RT. 10 μL of thapsigargin prepared in a Ca^2+-free HBSS solution at 5.5× of the desired concentration (5.5 uM) is added to each well and incubated for an additional 25 minutes. The initial baseline fluorescence signal is measured with a FLIPR^384 (Molecular Devices) plate reader. 5 μL of 12× calcium in HBSS (12 mM) is added and changes in cellular fluorescence are measured with the FLIPR^384 plate reader. In each well, the change in the fluorescent signal as a function of time due to calcium entry into the cell is determined by calculating the difference between the fluorescent signal measured 7 seconds after calcium addition and the initial baseline fluorescence signal at time zero (t=0). This parameter is designated Upslope. The IC50 value is calculated as the concentration at which 50% of the Upslope is inhibited.
# T1 sequence (Q96D31 whole entry): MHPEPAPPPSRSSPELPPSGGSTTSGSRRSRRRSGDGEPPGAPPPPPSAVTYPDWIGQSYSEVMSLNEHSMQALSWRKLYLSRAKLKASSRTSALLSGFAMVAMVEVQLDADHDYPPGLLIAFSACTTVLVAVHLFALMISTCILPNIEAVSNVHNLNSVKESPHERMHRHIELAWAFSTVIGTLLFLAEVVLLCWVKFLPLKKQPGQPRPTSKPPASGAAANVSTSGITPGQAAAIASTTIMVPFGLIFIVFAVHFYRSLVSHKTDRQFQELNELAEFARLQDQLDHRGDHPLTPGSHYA
IC50 (Orai1/STIM1; Table iii),IC50 (RBL-2H3 cells; Table iii),IC50 (Orai1/STIM1; Table iv),IC50 (RBL-2H3 cells; Table iv),Structure (SMILES),also measured
< 600 nM,< 600 nM,,,Cn1nc(C(F)(F)F)cc1-c1ccc(NCc2ccccc2F)cc1,
,,< 600 nM,< 600 nM,Cn1nc(C(F)(F)F)cc1-c1ccc(NC(=O)c2c(F)cncc2F)cc1,
,< 600 nM,,,Cc1cc2c(cc1-c1ccc(NCc3c(C)cccc3F)cc1F)OC(F)(F)O2,"Orai1/STIM1 (IC50, μmol) (Orai1/STIM1; Table iii): Max inh. <50%"
600 to 1200 nM,> 1200 nM,,,Cn1nc(C(F)(F)F)cc1-c1ccc(NCc2ccccc2F)c(F)c1,
,,> 1200 nM,< 600 nM,Cc1cc(C(F)(F)F)nn1-c1ccc(NC(=O)c2c(F)ccc(F)c2F)cc1,
< 600 nM,< 600 nM,,,Cn1nc(C(F)(F)F)cc1-c1ccc(NCc2c(F)cccc2F)cc1,
,,> 1200 nM,600 to 1200 nM,Cc1nc(C(F)(F)F)cn1-c1ccc(NC(=O)c2c(F)cncc2F)cc1F,
,< 600 nM,,,Cn1nc(C(F)(F)F)cc1-c1c(F)cc(NCc2ccc(F)cc2F)cc1F,"Orai1/STIM1 (IC50, μmol) (Orai1/STIM1; Table iii): —"
,,< 600 nM,< 600 nM,Cc1ccccc1C(=O)Nc1ccc(-c2cc(C(F)(F)F)nn2C)c(F)c1,
,,> 1200 nM,< 600 nM,Cc1cc(C(F)(F)F)nn1-c1ccc(NC(=O)c2c(F)cncc2F)cc1,
600 to 1200 nM,< 600 nM,,,Cc1nn(C(F)F)cc1-c1ccc(NCc2ccccc2F)cc1,
,,,< 600 nM,O=C(Nc1ccc(-n2nc(C(F)(F)F)cc2C(F)(F)F)cc1)c1ccccc1F,
600 to 1200 nM,< 600 nM,,,Cc1cc2c(cc1-c1ccc(NCc3ccncc3F)cc1)OC(F)(F)O2,
,,> 1200 nM,< 600 nM,Cn1nc(C(F)(F)F)cc1-c1c(F)cc(NC(=O)c2c(F)cccc2F)cc1F,
600 to 1200 nM,< 600 nM,,,Cn1nc(C(F)(F)F)cc1-c1ccc(NCc2c(Cl)cnn2C)cc1,
,,< 600 nM,< 600 nM,Cc1nnsc1C(=O)Nc1ccc(-c2cc(C(F)(F)F)nn2C)c(F)c1,
,,< 600 nM,< 600 nM,Cc1nn(C(F)F)cc1-c1ccc(NC(=O)c2c(F)ccc(F)c2F)cc1,
,,,,Cn1nc(C(F)(F)F)cc1-c1ccc(NC(=O)c2ccccc2F)c(F)c1,"Orai1/STIM1 (IC50, μmol) (Orai1/STIM1; Table iv): Max inh. <50%; RBL-2H3 (IC50, μmol) (RBL-2H3 cells; Table iv): —"
,,> 1200 nM,< 600 nM,Cc1nc(C(F)(F)F)cn1-c1ccc(NC(=O)c2c(F)ccc(F)c2F)cc1F,
,,< 600 nM,< 600 nM,Cc1cc(C(F)(F)F)nn1-c1ccc(NC(=O)c2ccc(F)cc2F)cc1,

IC50 (Orai1/STIM1; Table iii),IC50 (RBL-2H3 cells; Table iii),IC50 (Orai1/STIM1; Table iv),IC50 (RBL-2H3 cells; Table iv),Structure (SMILES),also measured
600 to 1200 nM,< 600 nM,,,Fc1cccc(F)c1CNc1ccc(-n2nc(C(F)(F)F)cc2C(F)(F)F)cc1,
< 600 nM,< 600 nM,,,Fc1ccccc1CNc1ccc(-n2nc(C(F)(F)F)cc2C(F)(F)F)cc1,
600 to 1200 nM,< 600 nM,,,Cc1ccccc1CNc1ccc(-c2nc(C(F)(F)F)sc2C)cc1,
,,< 600 nM,600 to 1200 nM,Cc1ccccc1C(=O)Nc1ccc(-c2cn(C(F)F)nc2C)c(F)c1,
< 600 nM,< 600 nM,,,Cc1sc(C(F)(F)F)nc1-c1ccc(NCc2c(F)cc(F)cc2F)cc1,
< 600 nM,< 600 nM,,,Cc1cc(C(F)(F)F)nn1-c1ccc(NCc2c(F)cc(F)cc2F)cc1,
,,< 600 nM,< 600 nM,Cn1nc(C(F)(F)F)cc1-c1ccc(NC(=O)c2c(F)cc(F)cc2F)cc1F,
,,> 1200 nM,< 600 nM,Cc1cc2c(cc1-c1ccc(NC(=O)c3c(F)cncc3F)cc1F)OC(F)(F)O2,
,,< 600 nM,< 600 nM,CCn1nc(C(F)(F)F)cc1-c1ccc(NC(=O)c2ccccc2F)cc1F,
,,> 1200 nM,< 600 nM,Cc1cc2c(cc1-c1ccc(NC(=O)c3c(F)cccc3F)cc1F)OC(F)(F)O2,
< 600 nM,< 600 nM,,,Cc1nn(C(F)F)cc1-c1ccc(NCc2c(F)ccc(F)c2F)cc1,
,,< 600 nM,< 600 nM,Cc1nn(C(F)F)cc1-c1ccc(NC(=O)c2c(F)cccc2F)cc1F,
600 to 1200 nM,< 600 nM,,,Cc1cnccc1CNc1ccc(-c2cc(C(F)(F)F)nn2C)c(F)c1,
,,> 1200 nM,< 600 nM,Cc1cc2c(cc1-c1ccc(NC(=O)c3c(C)cccc3F)cc1F)OC(F)(F)O2,
600 to 1200 nM,< 600 nM,,,Cc1cccc(F)c1CNc1ccc(-c2nc(C(F)(F)F)sc2C)cc1,
< 600 nM,< 600 nM,,,Cc1cc(C(F)(F)F)nn1-c1ccc(NCc2c(F)ccc(F)c2F)cc1,
< 600 nM,< 600 nM,,,Cc1nc(C(F)(F)F)cn1-c1ccc(NCc2c(F)cc(F)cc2F)cc1F,
< 600 nM,< 600 nM,,,Cc1nc(C(F)(F)F)cn1-c1ccc(NCc2c(F)ccc(F)c2F)cc1F,
,,< 600 nM,< 600 nM,Cc1sc(C(F)(F)F)nc1-c1ccc(NC(=O)c2c(F)cccc2F)cc1,
,,600 to 1200 nM,< 600 nM,Cc1cnccc1C(=O)Nc1ccc(-c2cc(C(F)(F)F)nn2C)c(F)c1,

IC50 (Orai1/STIM1; Table iii),IC50 (RBL-2H3 cells; Table iii),IC50 (Orai1/STIM1; Table iv),IC50 (RBL-2H3 cells; Table iv),Structure (SMILES),also measured
,,< 600 nM,< 600 nM,Cn1nc(C(F)(F)F)cc1-c1ccc(NC(=O)c2c(F)cncc2F)c(F)c1,
< 600 nM,< 600 nM,,,Cn1nc(C(F)(F)F)cc1-c1ccc(NCc2c(F)cccc2F)cc1F,
,,< 600 nM,< 600 nM,Cn1nc(C(F)(F)F)cc1-c1ccc(NC(=O)c2c(Cl)cnn2C)cc1,
< 600 nM,< 600 nM,,,Cc1cc(F)ccc1CNc1ccc(-c2cc(C(F)(F)F)nn2C)c(F)c1,
,,600 to 1200 nM,< 600 nM,Cn1nc(C(F)(F)F)cc1-c1ccc(NC(=O)c2c(F)ccc(F)c2F)cc1F,
600 to 1200 nM,< 600 nM,,,Cn1nc(C(F)(F)F)cc1-c1ccc(NCc2c(F)cncc2F)c(F)c1,
,,< 600 nM,< 600 nM,Cc1ncsc1C(=O)Nc1ccc(-c2cc(C(F)(F)F)nn2C)c(F)c1,
,,< 600 nM,< 600 nM,Cc1cc(C(F)(F)F)nn1-c1ccc(NC(=O)c2ccccc2F)cc1,
< 600 nM,< 600 nM,,,Cn1nc(C(F)(F)F)cc1-c1ccc(NCc2ccccc2F)cc1F,
< 600 nM,< 600 nM,,,CCn1nc(C(F)(F)F)cc1-c1ccc(NCc2c(F)cccc2F)cc1,
,,< 600 nM,< 600 nM,Cn1nc(C(F)(F)F)cc1-c1ccc(NC(=O)c2c(F)cc(F)cc2F)cc1,
< 600 nM,< 600 nM,,,Cn1nc(C(F)(F)F)cc1-c1ccc(NCc2ccncc2F)cc1F,
,,< 600 nM,< 600 nM,Cn1nc(C(F)(F)F)cc1-c1ccc(NC(=O)c2c(F)cccc2F)c(F)c1,
< 600 nM,< 600 nM,,,Cc1cc(C(F)(F)F)nn1-c1ccc(NCc2c(F)cccc2F)cc1,
< 600 nM,< 600 nM,,,Cc1cc(C(F)(F)F)nn1-c1ccc(NCc2ccccc2F)cc1,
,,> 1200 nM,< 600 nM,Cc1nc(C(F)(F)F)cn1-c1ccc(NC(=O)c2c(F)cc(F)cc2F)cc1,
< 600 nM,< 600 nM,,,Cn1nc(C(F)(F)F)cc1-c1ccc(NCc2c(F)cc(F)cc2F)cc1F,
,,< 600 nM,< 600 nM,Cc1cc(F)ccc1C(=O)Nc1ccc(-c2cc(C(F)(F)F)nn2C)c(F)c1,
